{
  "source": "ChEMBL document CHEMBL5154820",
  "about": "(Eur J Med Chem, 2022)",
  "key": {"[1]": {"system": "HeLa", "experiment": "Induction of apoptosis in human HeLa cells assessed as necrotic cells at 3 nM measured after 24 hrs by Annexin V-FITC/7-AAD staining based flow cytometric analysis (reference value: 0.45%)", "assay_type": "functional"}, "[2]": {"system": "HeLa", "experiment": "Induction of cell cycle arrest in human HeLa cells assessed as accumulation of cells at G2/M phase at 6 nM after 24 hrs by propidium iodide staining based flow cytometric analysis (reference value: 17.1%)", "assay_type": "functional"}, "[3]": {"system": "HeLa", "experiment": "Induction of apoptosis in human HeLa cells assessed as late apoptotic cells at 1.5 nM measured after 24 hrs by Annexin V-FITC/7-AAD staining based flow cytometric analysis (reference value: 5.22%)", "assay_type": "functional"}, "[4]": {"system": "HeLa", "experiment": "Antimigratory activity against human HeLa cells at 1.5 nM measured after 24 hrs by scratch wound healing based fluorescence inverted microscopic analysis", "assay_type": "functional"}, "[5]": {"system": "HeLa", "experiment": "Induction of cell cycle arrest in human HeLa cells assessed as 4N cells at 1.5 nM measured after 24 hrs by propidium iodide staining based flow cytometric analysis analysis ( Rvb = 17.1%)", "assay_type": "functional"}, "[6]": {"system": "HeLa", "experiment": "Induction of cell cycle arrest in human HeLa cells assessed as 4N cells at 6 nM measured after 24 hrs by propidium iodide staining based flow cytometric analysis analysis ( Rvb = 17.1%)", "assay_type": "functional"}, "[7]": {"system": "HeLa", "experiment": "Induction of cell cycle arrest in human HeLa cells assessed as 2N cells at 6 nM measured after 24 hrs by propidium iodide staining based flow cytometric analysis analysis ( Rvb = 41.7%)", "assay_type": "functional"}, "[8]": {"system": "HeLa", "experiment": "Antimigratory activity against human HeLa cells at 0.1 uM measured after 24 hrs by scratch wound healing based fluorescence inverted microscopic analysis", "assay_type": "functional"}, "[9]": {"experiment": "Acute toxicity against ICR mouse assessed as morphological changes in heart at 1000 mg/kg, ip measured after 14 days by H and E staining method", "assay_type": "organism-based", "conditions": "in vivo, 336 h, time 14 day"}, "[10]": {"system": "HeLa", "experiment": "Antitumor activity against human HeLa cells xenografted in BABL/c mouse assessed assessed as reduction in tumor volume at 30 mg/kg, ip administered daily for 21 days followed by addition of 3 mg/kg DDP for every 2 days and measured every 3 days ( Rvb = 2336 mm3)", "assay_type": "functional", "conditions": "time 21 day"}, "[11]": {"experiment": "Nephrotoxicity in BABL/c mouse assessed as increased uric acid level at 30 mg/kg, ip administered daily for 21 days followed by addition of 3 mg/kg DDP for every 2 days relative to vehicle", "assay_type": "toxicity, organism-based", "conditions": "in vivo, 504 h, time 21 day"}, "[12]": {"molecular_target": "T1, Tubulin beta (Homo sapiens) (UniProt P68371+Q9H4B7+Q13509+P04350+Q3ZCM7+P07437+Q13885+Q9BVA1+Q9BUF5+A6NNZ2)", "experiment": "Binding affinity to beta-tubulin colchicine binding site in human HeLa cells assessed as decrease of adduct formation by measuring gray value measured at 50 uM incubated for 2 hrs followed by addition of EBI measured after 1.5 hrs by EBI competition based Western blotting analysis", "assay_type": "cell-based", "conditions": "time 3.5 hrs"}, "[13]": {"experiment": "Toxicity against BABL/c mouse assessed as morphological changes in heart at 30 to 60 mg/kg, ip administered daily for 21 days by H and E staining method", "assay_type": "organism-based", "conditions": "in vivo, 504 h, dose 30-60 mg/kg, time 21 day"}, "[14]": {"experiment": "Nephrotoxicity in BABL/c mouse assessed as increased uric acid level at 60 mg/kg, ip administered daily for 21 days relative to vehicle", "assay_type": "toxicity, organism-based", "conditions": "in vivo, 504 h, time 21 day"}, "[15]": {"system": "HeLa", "experiment": "Induction of apoptosis in human HeLa cells assessed as late apoptotic cells at 0.4 uM measured after 24 hrs by Annexin V-FITC/7-AAD staining based flow cytometric analysis (reference value: 8.51%)", "assay_type": "functional"}, "[16]": {"system": "SiHa", "experiment": "Potency index, ratio of cisplatin IC50 to test compound IC50 for cytotoxicity against human DDP resistant SiHa cells", "assay_type": "functional"}, "[17]": {"system": "HeLa", "experiment": "Induction of apoptosis in human HeLa cells assessed as late apoptotic cells at 0.1 uM measured after 24 hrs by Annexin V-FITC/7-AAD staining based flow cytometric analysis (reference value: 8.51%)", "assay_type": "functional"}, "[18]": {"system": "HeLa", "experiment": "Induction of apoptosis in human HeLa cells assessed as viable cells at 0.1 uM measured after 24 hrs by Annexin V-FITC/7-AAD staining based flow cytometric analysis (reference value: 70.1%)", "assay_type": "functional", "conditions": "read-out: Activity"}, "[19]": {"experiment": "Acute toxicity against ICR mouse assessed as morphological changes in lung at 1000 mg/kg, ip measured after 14 days by H and E staining method", "assay_type": "organism-based", "conditions": "in vivo, 336 h, time 14 day"}, "[20]": {"system": "HeLa", "experiment": "Antitumor activity against human HeLa cells xenografted in BABL/c mouse assessed assessed as reduction in tumor volume at 30 mg/kg, ip administered daily for 21 days and measured every 3 days ( Rvb = 2336 mm3)", "assay_type": "functional", "conditions": "time 21 day"}, "[21]": {"molecular_target": "T1, Tubulin beta (Homo sapiens)", "experiment": "Binding affinity to beta-tubulin colchicine binding site in human HeLa cells assessed as decrease of adduct formation by measuring gray value measured at 100 uM incubated for 2 hrs followed by addition of EBI measured after 1.5 hrs by EBI competition based Western blotting analysis", "assay_type": "cell-based", "conditions": "time 3.5 hrs"}, "[22]": {"experiment": "Acute toxicity against ICR mouse assessed as chronic progressive nephropathy in kidney at 1000 mg/kg, ip measured after 14 days by H and E staining method", "assay_type": "organism-based", "conditions": "in vivo, 336 h, time 14 day"}, "[23]": {"experiment": "Apparent volume of distribution during terminal phase in C57 nude mouse at 30 mg/kg, ip measured at 0.083 to 24 hrs by LC/MS/MS analysis", "assay_type": "ADME, organism-based", "conditions": "in vivo, time 0.083-24 hrs, read-out: Vz/F"}, "[24]": {"system": "HeLa", "experiment": "Induction of cell cycle arrest in human HeLa cells assessed as >4N cells at 0.1 uM measured after 24 hrs by propidium iodide staining based flow cytometric analysis analysis ( Rvb = 8.84%)", "assay_type": "functional"}, "[25]": {"system": "HeLa", "experiment": "Induction of cell cycle arrest in human HeLa cells assessed as < 2N cells at 0.2 uM measured after 24 hrs by propidium iodide staining based flow cytometric analysis analysis ( Rvb = 7.07%)", "assay_type": "functional"}, "[26]": {"system": "HeLa", "experiment": "Induction of cell cycle arrest in human HeLa cells assessed as 2N cells at 0.4 uM measured after 24 hrs by propidium iodide staining based flow cytometric analysis analysis ( Rvb = 47.4%)", "assay_type": "functional"}, "[27]": {"experiment": "Acute toxicity against ICR mouse assessed as inflammatory cell infiltration in kidney at 1000 mg/kg, ip measured after 14 days by H and E staining method", "assay_type": "organism-based", "conditions": "in vivo, 336 h, time 14 day"}, "[28]": {"system": "HeLa", "experiment": "Induction of cell cycle arrest in human HeLa cells assessed as 4N cells at 0.4 uM measured after 24 hrs by propidium iodide staining based flow cytometric analysis analysis ( Rvb = 20.3%)", "assay_type": "functional"}, "[29]": {"system": "HeLa", "experiment": "Antitumor activity against human HeLa cells xenografted in BABL/ mouse assessed as tumor growth inhibition at 60 mg/kg, ip administered daily for 21 days relative to control", "assay_type": "functional", "conditions": "504 h, time 21 day, read-out: TGI"}, "[30]": {"system": "HeLa", "experiment": "Induction of cell cycle arrest in human HeLa cells assessed as 4N cells at 0.1 uM measured after 24 hrs by propidium iodide staining based flow cytometric analysis analysis ( Rvb = 20.3%)", "assay_type": "functional"}, "[31]": {"experiment": "Nephrotoxicity in BABL/c mouse assessed as increased urea nitrogen level at 30 mg/kg, ip administered daily for 21 days relative to vehicle", "assay_type": "toxicity, organism-based", "conditions": "in vivo, 504 h, time 21 day"}, "[32]": {"experiment": "Nephrotoxicity in BABL/c mouse assessed as increased creatinine level at 30 mg/kg, ip administered daily for 21 days followed by addition of 3 mg/kg DDP for every 2 days relative to vehicle", "assay_type": "toxicity, organism-based", "conditions": "in vivo, 504 h, time 21 day"}},
  "data": [
    {"smiles": "COc1ccc(/C=C\\c2cc(OC)c(OC)c(OC)c2)cc1O", "note": "[COMBRETASTATIN A4]", "values": [
      {"measurement": "Activity", "setting": "[1]", "value": 0.64, "unit": "%"},
      {"measurement": "Activity", "setting": "[2]", "value": 35.3, "unit": "%"},
      {"measurement": "Activity", "setting": "[3]", "value": 6.68, "unit": "%"},
      {"measurement": "Activity", "setting": "[4]", "value": 25, "unit": "%"},
      {"measurement": "Activity", "setting": "[5]", "value": 22.5, "unit": "%"},
      {"measurement": "Activity", "setting": "[6]", "value": 35.3, "unit": "%"},
      {"measurement": "Activity", "setting": "[7]", "value": 25.9, "unit": "%"}
    ]},
    {"smiles": "CCOc1ccc(-c2cncnc2-c2cc(OC)c(OC)c(OC)c2)cc1Cl", "values": [
      {"measurement": "Activity", "setting": "[8]", "value": 3, "unit": "%"},
      {"measurement": "Activity", "setting": "[9]", "value": "Non-Toxic"},
      {"measurement": "Activity", "setting": "[10]", "value": 724, "unit": "mm3"},
      {"measurement": "Activity", "setting": "[11]", "value": 16, "unit": "%"},
      {"measurement": "Activity", "setting": "[12]", "value": 1.51},
      {"measurement": "Activity", "setting": "[13]", "value": "Non-Toxic"},
      {"measurement": "Activity", "setting": "[14]", "value": 36, "unit": "%"},
      {"measurement": "Activity", "setting": "[15]", "value": 3.98, "unit": "%"},
      {"measurement": "Ratio IC50", "setting": "[16]", "value": 2.7},
      {"measurement": "Activity", "setting": "[17]", "value": 7.29, "unit": "%"},
      {"measurement": "viability at 0.1 µM", "setting": "[18]", "value": 56.3, "unit": "%"},
      {"measurement": "Activity", "setting": "[19]", "value": "Non-Toxic"},
      {"measurement": "Activity", "setting": "[20]", "value": 1578, "unit": "mm3"},
      {"measurement": "Activity", "setting": "[21]", "value": 2},
      {"measurement": "Activity", "setting": "[22]", "value": "Non-Toxic"},
      {"measurement": "Vd/F", "setting": "[23]", "value": 11.3, "unit": "L/kg"},
      {"measurement": "Activity", "setting": "[24]", "value": 21.6, "unit": "%"},
      {"measurement": "Activity", "setting": "[25]", "value": 0.59, "unit": "%"},
      {"measurement": "Activity", "setting": "[26]", "value": 7.03, "unit": "%"},
      {"measurement": "Activity", "setting": "[27]", "value": "Non-Toxic"},
      {"measurement": "Activity", "setting": "[28]", "value": 71.7, "unit": "%"},
      {"measurement": "inhibition in vivo at 60 mg/kg", "setting": "[29]", "value": 58, "unit": "%"},
      {"measurement": "Activity", "setting": "[30]", "value": 24.7, "unit": "%"},
      {"measurement": "Activity", "setting": "[31]", "value": 1.3, "unit": "%"},
      {"measurement": "Activity", "setting": "[32]", "value": 40, "unit": "%"}
    ]}
  ]
}
